This passage reports Activity results from ChEMBL document CHEMBL3046130, “Apteniols AF, oxyneolignans from the leaves of Aptenia cordifolia” (Tetrahedron, 2005).

For series [1], the system named is Lactuca sativa. The experiment in a line: Phytotoxicity against Lactuca sativa (lettuce) assessed as reduction of shoot elongation at 10^-7 M measured daily for 5 days relative to control. It is filed as functional, organism-based.
Series [2] deals with Lactuca sativa. Put plainly: Phytotoxicity against Lactuca sativa (lettuce) assessed as reduction of root elongation at 10^-4 M measured daily for 5 days relative to control. It is filed as functional. The arrangement: scale not given: the % may be the effect or the level left.
Series [3] concerns Lactuca sativa. The experiment in a line: Phytotoxicity against Lactuca sativa (lettuce) assessed as reduction of seed germination measured daily for 5 days relative to control. It is filed as functional, organism-based.
The test system of series [4] is Lactuca sativa. The experiment in a line: Phytotoxicity against Lactuca sativa (lettuce) assessed as reduction of seed germination at 10^-5 M measured daily for 5 days relative to control. It is filed as functional. The arrangement: scale not given: the % may be the effect or the level left.
Series [5] relates to Lactuca sativa. Put plainly: Stimulation of root elongation in Lactuca sativa (lettuce) at 10^-7 M measured daily for 5 days relative to control. It is filed as […], organism-based. As to conditions: in vivo, 120 h, 0.1 µM.

Calls of active or inactive are those of the source. No cut-off for these calls is given here.

`COc1cc(CCC(=O)O)ccc1Oc1ccccc1CCC(=O)O` [APTENIOL F]: in the series on Lactuca sativa [1], the outcome was inactive. The results for the Activity in the series on Lactuca sativa [2], in the series on Lactuca sativa [3] and in the series on Lactuca sativa [4] were 20%, “Dose-dependent effect” and 25%, respectively.

Turning to `COc1cc(CCC(=O)O)ccc1Oc1ccc(CCC(=O)O)cc1` [APTENIOL B], the Activity in the series on Lactuca sativa [5] is 20%; in the series with Lactuca sativa [2], 20%; with Lactuca sativa [3] it was “Dose-dependent effect”; in the series on Lactuca sativa [4] it was 25%.

Consider `COc1cc(CCC(=O)O)cc(OC)c1Oc1c(OC)cc(CCC(=O)O)cc1OC` [APTENIOL E], for which the Activity in the series on Lactuca sativa [5] was 20%; in the series with Lactuca sativa [2] it was 20%; with Lactuca sativa [3], “Dose-dependent effect”; in the series with Lactuca sativa [4], 25%.

Turning to `COC(=O)CCc1ccc(Oc2ccc(CCC(=O)OC)cc2OC)cc1` [APTENIOL C], the outcome with Lactuca sativa [1] and with Lactuca sativa [2] was inactive. The results for the Activity entry in the series on Lactuca sativa [3] and in the series with Lactuca sativa [4] were “Dose-dependent effect” and 25%, respectively.

`O=C(O)CCc1ccc(Oc2ccc(CCC(=O)O)cc2)cc1` [APTENIOL A]: the outcome in the series on Lactuca sativa [1] was inactive. Besides, the Activity is 40% in the series with Lactuca sativa [2], “Dose-dependent effect” in the series on Lactuca sativa [3] and 25% in the series with Lactuca sativa [4].

As to `COc1cc(CCC(=O)O)ccc1Oc1c(OC)cc(CCC(=O)O)cc1OC` [APTENIOL D], the Activity in the series with Lactuca sativa [2] is 20%; in the series with Lactuca sativa [3] it was “Dose-dependent effect”; in the series with Lactuca sativa [4] it was 25%.
